Assay results published in patent publication US7795215B2, “MNTF peptides and compositions and methods of use” (Genervon Biopharmaceuticals LLC, priority 2003, dated 2010).
“Also recorded” adds a separate entry of the source. Where no end group is shown, it is not given here.

How the values were obtained:
[1] = test system: VSC4.1 cells, a motor neuron/neuroblastoma cell hybrid; assay: VSC4.1 cell proliferation assay (BrdU); format: cell-based; conditions: for Biological Function / OD (optimal dose): VSC4.1 proliferation; for maximal increase in cell proliferation: % increase over control; for stimulation of VSC4.1 cell proliferation over controls: second round of experiments
Procedure: Studies of proliferation were performed in 96 well plates utilizing a cell proliferation assay kit from Roche Diagnostics GmbH (Mannheim, Germany). VSC4.1 cells, a motor neuron/neuroblastoma cell hybrid, were cultured in DMEM with 2% FBS containing either no MNTF or a dose range of MNTF from 10^−8 to 10^−5 g/ml. Each treatment was applied in triplicate wells. The cells were cultured for 21 hours and 5-bromo-2′-deoxyuridine (BrdU) from the assay kit was added to each well. After BrdU labeling for 3 hours, the cells were washed, fixed and dried. The cells were then fixed and the DNA denatured to improve access for the subsequent antibody binding. POD-labeled mouse monoclonal anti-BrdU antibody from the assay kit was applied for 2 hours, followed by a wash. The assay was quantitated by adding the colorimetric assay solution (tetramethyl benzidine) and reading at 450 nm on a Wallac Vector 2 plate reader. Cells in the treatment groups were quantitated by comparing to wells plated with a gradient of cells from 0 to 20,000 cells/well on the same plate. Data is expressed as % of control to allow for variability from plate to plate.
Additional cell proliferation assays, conducted essentially as described above, were performed to compare the effects of several GLP grade MNTF peptides.
Further cell proliferation studies were performed, essentially as described above, to test the response of the motor neuron/neuroblastoma cells to three new preparations of MNTF. The MNTF preparations utilized for these assays were: […]

rat femoral nerve = assay: Femoral nerve model, MNTF pump experiments (Preferential Motor Reinnervation); format: in vivo
Procedure: The specificity of motor axon regeneration was investigated in the rat femoral nerve. Proximally, at the site of nerve transection and suture, axons that contribute to both cutaneous and muscle branches intermingle throughout the nerve. As these axons regenerate, they have equal access to neighboring motor and sensory Schwann cell tubes in the distal nerve stump. This assures an element of “choice” at the axonal level. Distally, where the specificity of regeneration is assessed, axons are segregated into terminal cutaneous and muscle branches. Motor axons are normally found only in the muscle branch, so any motor reinnervation of the cutaneous branch represents a pathfinding failure. The specificity of axon regeneration is evaluated by simultaneous application of horseradish peroxidase (HRP) to one distal femoral branch and fluoro-gold (FG) to the other. Motor-axon regeneration is random at 3 weeks, but the number of correct projections to muscle increases dramatically at later times. Many neurons initially contain both tracers, and thus project collaterals to both cutaneous and muscle branches. The number of these double-labeled neurons decreases with time. Motor axon collaterals are thus pruned from the cutaneous branch, increasing the number of correct projections to muscle at the expense of double-labeled neurons. A specific interaction thus occurs between regenerating motor axons and muscle and/or muscle nerve that we have termed Preferential Motor Reinnervation (PMR).
In preliminary experiments we attempted to modify motor axon regeneration in the femoral nerve by pumping MNTF 33mer at 10^−4 M onto the repair site, using an Alzet osmotic pump which discharges for at least 2 weeks. The output of the pump was sewn to muscle adjacent to the nerve repair, so that the nerve wound would be continuously bathed with the factor. Reinnervation of the distal femoral cutaneous and muscle branches was quantified with tracers as described above.
In a follow-up experiment MNTF 33mer was administered to eight transected and sutured rat femoral nerves at 10^−4 M, essentially as described above. Controls were a group of six nerves that underwent routine suture with pumps delivering saline but no MNTF. A mean of 100 motoneurons projected correctly in the six controls, whereas a mean of 87 motoneurons projected incorrectly to skin.
To determine if a truncated MNTF peptide could be substituted for MNTF 33mer, subsequent experiments were performed, essentially as described above, using the MNTF 6mer FSRYAR, at 10^−4 M (n=8), 10^−5 M (n=8) and 10^−6 M (n=8), with a total of 22 saline controls for comparison. […] Thus the 6mer is capable of promoting selective reinnervation of target muscles in a manner similar to the MNTF1 33mer.

[2] = earliest studies, FIG. 2, listed as GLP grade MNTF 33mer
[3] = earliest studies, FIG. 2, listed as MNTF 33mer (research grade)
[4] = second set, FIG. 3, highest dose
[5] = follow-up experiment, 10^−4 M, eight nerves, saline pump controls
[6] = preliminary experiments, 10^−4 M by Alzet osmotic pump, three weeks, three animals
[7] = 10^−4 M, 10^−5 M and 10^−6 M, FIG. 5, vs saline controls

Substance: 33mer: 33 amino acid MNTF1-F6 fragment, SEQ ID NO:1, made by solid phase synthesis; positive control in cell proliferation assays (LGTFWGDTLNCWMLSAFSRYARCLAEGHDGPTQ) [reference compound]
- Biological Function ([1]; assay set Aug. 4, 2003): Effective
- OD (optimal dose) ([1]; assay set Aug. 4, 2003): 0.01 µg/mL
- Biological Function ([1]; assay set Mar. 28, 2003): Effective
- OD (optimal dose) ([1]; assay set Mar. 28, 2003, listed as 33mer GLPg, L): 10 µg/mL
- OD (optimal dose) ([1]; assay set Mar. 28, 2003, listed as 33mer Rg, L): 100 µg/mL
- Biological Function ([1]; assay set Oct. 27, 2002): Effective
- OD (optimal dose) ([1]; assay set Oct. 27, 2002, listed as 33mer GLPg, L): 0.1 µg/mL
- OD (optimal dose) ([1]; assay set Oct. 27, 2002, listed as 33mer Rg, L): 10 µg/mL
- maximal increase in cell proliferation [1, 2]: 34.3%
- maximal increase in cell proliferation [1, 3]: 31.7%
- relative effectiveness in proliferation assay (words) ([1]; earliest studies, FIG. 2, listed as GLP grade 33mer): most biologically active
- dose of maximal response [1, 2]: 0.1 µg/mL
- relative effectiveness in proliferation assay (words) [1, 2]: most effective in this assay
- dose of maximal response [1, 3]: 10 µg/mL
- effect on proliferation of motor neuron/neuroblastoma cells (summary in description) ([1]; in vitro): effective at increasing the proliferation of motoneuron/neuroblastoma cells
- peak fold response in proliferation ([1]; second set, FIG. 3, at 10 μg/ml): 3 fold
- fold increase in proliferation [1, 4]: ~3 fold
- relative effectiveness in proliferation assay (words) ([1]; third set, FIG. 4): significantly (p<0.05) stimulated proliferation over control; also recorded: nearly as well as the 10mer at low doses; also recorded: clearly superior to the 21mer
- correct projections of motoneurons to muscle (mean) (rat femoral nerve; [5]): 173
- incorrect projections of motoneurons to skin (mean) (rat femoral nerve; [5]): 59
- correct projections of motoneurons to muscle (mean) (rat femoral nerve; [6]): 210
- incorrect projections of motoneurons to skin (mean) (rat femoral nerve; [6]): 31

Substance: CWMLSAFSRYARC [13mer]
- Biological Function ([1]; assay set Mar. 28, 2003): Effective
- OD (optimal dose) ([1]; assay set Mar. 28, 2003): 0.1 µg/mL
- effect on proliferation of motor neuron/neuroblastoma cells (summary in description) ([1]; in vitro): sufficient to increase cell proliferation of motor neuron/neuroblastoma cells
- stimulation of VSC4.1 cell proliferation over controls [1]: ≥ 250%
- relative effectiveness in proliferation assay (words) ([1]; second set, FIG. 3): some efficacy at the lowest dose, this effect fell off at higher doses

Substance: Cyclized MNTF 33mer: cyclized version of the MNTF1 33-mer, SEQ ID NO:1, research grade (LGTFWGDTLNCWMLSAFSRYARCLAEGHDGPTQ; also: cyclized)
- Biological Function ([1]; assay set Oct. 27, 2002): Limited Efficacy.
- dose of maximal response ([1]; earliest studies, FIG. 2): 0.1 µg/mL
- relative effectiveness in proliferation assay (words) ([1]; earliest studies, FIG. 2): limited efficacy
- maximal increase in cell proliferation ([1]; earliest studies, FIG. 2): 12.9%
- relative effectiveness in proliferation assay (words) ([1]; earliest studies, FIG. 2, listed as cyclized MNTF 33mer): very weak proliferative activity at low doses
- effect on proliferation of motor neuron/neuroblastoma cells (summary in description) ([1]; in vitro): less effective

Substance: FSRYAR [6mer]
- Biological Function ([1]; assay set Mar. 28, 2003): Effective
- OD (optimal dose) ([1]; assay set Mar. 28, 2003): 1 µg/mL
- Biological Function ([1]; assay set Oct. 27, 2002): Effective
- OD (optimal dose) ([1]; assay set Oct. 27, 2002): 10 µg/mL
- dose of maximal response ([1]; earliest studies, FIG. 2): 10 µg/mL
- relative effectiveness in proliferation assay (words) ([1]; earliest studies, FIG. 2): comparably effective
- maximal increase in cell proliferation ([1]; earliest studies, FIG. 2): 35.1%
- effect on proliferation of motor neuron/neuroblastoma cells (summary in description) ([1]; in vitro): sufficient to increase cell proliferation of motor neuron/neuroblastoma cells
- relative effectiveness in proliferation assay (words) ([1]; second set, FIG. 3): poorest performers; also recorded: less effectively than the others
- fold increase in proliferation ([1]; second set, FIG. 3, at 1 μg/ml): ~2.5 fold
- correct projections (rat femoral nerve; [7]): significant increases in correct projections at every dose tested
- incorrect projections to skin (rat femoral nerve; [7]): marked reductions in the number of incorrect projections to skin

Substance: FSRYARCLAEG [11mer]
- Biological Function ([1]; assay set Mar. 28, 2003): Effective
- OD (optimal dose) ([1]; assay set Mar. 28, 2003): 1 µg/mL
- Biological Function ([1]; assay set Oct. 27, 2002): Effective
- OD (optimal dose) ([1]; assay set Oct. 27, 2002): 10 µg/mL
- dose of maximal response ([1]; earliest studies, FIG. 2): 10 µg/mL
- relative effectiveness in proliferation assay (words) ([1]; earliest studies, FIG. 2): comparably effective
- maximal increase in cell proliferation ([1]; earliest studies, FIG. 2): 32.2%
- effect on proliferation of motor neuron/neuroblastoma cells (summary in description) ([1]; in vitro): sufficient to increase cell proliferation of motor neuron/neuroblastoma cells
- relative effectiveness in proliferation assay (words) ([1]; second set, FIG. 3): poorest performers; also recorded: less effectively than the others
- fold increase in proliferation ([1]; second set, FIG. 3, at 1 μg/ml): ~2.5 fold

Substance: MLSAFSRYAR [10mer]
- Biological Function ([1]; assay set Aug. 4, 2003): Effective
- OD (optimal dose) ([1]; assay set Aug. 4, 2003): 0.01 µg/mL
- effect on proliferation of motor neuron/neuroblastoma cells (summary in description) ([1]; in vitro): at least as effective the full-length MNTF 33mer
- lowest concentration at which at least as effective as MNTF 33mer ([1]; in vitro): 0.01 µg/mL
- relative effectiveness in proliferation assay (words) ([1]; third set, FIG. 4): significantly (p<0.05) stimulated proliferation over control; also recorded: most active proliferative agent; also recorded: clearly superior to the 21mer
- increase in proliferation over controls ([1]; third set, FIG. 4, three lowest doses used): ~200%

Substance: MLSAFSRYARCLAEGHDGPTQ [21mer]
- Biological Function ([1]; assay set Aug. 4, 2003): Effective
- OD (optimal dose) ([1]; assay set Aug. 4, 2003): 0.1 µg/mL
- effect on proliferation of motor neuron/neuroblastoma cells (summary in description) ([1]; in vitro): sufficient to increase cell proliferation of motor neuron/neuroblastoma cells
- relative effectiveness in proliferation assay (words) ([1]; third set, FIG. 4): significantly (p<0.05) stimulated proliferation over control; also recorded: about half that of the other two MNTF isoforms

Substance: WMLSAFS [7mer]
- Biological Function ([1]; assay set Mar. 28, 2003): Effective
- OD (optimal dose) ([1]; assay set Mar. 28, 2003): 100 µg/mL
- Biological Function ([1]; assay set Oct. 27, 2002): Effective
- OD (optimal dose) ([1]; assay set Oct. 27, 2002): 1 µg/mL
- dose of maximal response ([1]; earliest studies, FIG. 2): 1 µg/mL
- relative effectiveness in proliferation assay (words) ([1]; earliest studies, FIG. 2): markedly less effective
- maximal increase in cell proliferation ([1]; earliest studies, FIG. 2): 25.1%
- relative effectiveness in proliferation assay (words) ([1]; earliest studies, FIG. 2, listed as MNTF 7mer): broader active dose range than the other preparations
- effect on proliferation of motor neuron/neuroblastoma cells (summary in description) ([1]; in vitro): potent stimulator of motor neuron/neuroblastoma cells in vitro over a broad range of dosage levels
- stimulation of VSC4.1 cell proliferation over controls [1]: 350%
- relative effectiveness in proliferation assay (words) ([1]; second set, FIG. 3): most potent preparation across the whole dose range; also recorded: most active proliferative agent
- fold increase in proliferation [1, 4]: ~3.5 fold
- fold increase in proliferation ([1]; second set, FIG. 3, lowest dose applied): 2.5 fold

Substance: cyclized MNTF 13mer: cyclized version of the 13-mer CWMLSAFSRYARC, SEQ ID NO:6, research grade (also: cyclized)
- Biological Function ([1]; assay set Oct. 27, 2002): Limited Efficacy.
- dose of maximal response ([1]; earliest studies, FIG. 2): 1 µg/mL
- relative effectiveness in proliferation assay (words) ([1]; earliest studies, FIG. 2): least effective of all peptides tested
- maximal increase in cell proliferation ([1]; earliest studies, FIG. 2): 17.3%
- effect on proliferation at higher doses ([1]; earliest studies, FIG. 2, higher doses): appeared to inhibit proliferation
- relative effectiveness in proliferation assay (words) ([1]; earliest studies, FIG. 2, listed as cyclized 13mer): markedly less effective
- effect on proliferation of motor neuron/neuroblastoma cells (summary in description) ([1]; in vitro): not as effective at stimulating cell proliferation in vitro
